In PubChem BioAssay (NCI):
“And” between values parts separate entries of the source, which are not always exact repeats. Equal values may be shown once.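 Where inhibition never reached the appropriate level, the endpoint shown equals the highest concentration tested. Otherwise, values were interpolated linearly from a five-concentration, 48-hour dose response in 96-well plates. At the GI50, growth is halved. TGI: total growth inhibition.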

Columns and labels:
Assay in all cases: NCI anticancer screen, dose series, 48 h
SF-268 CNS = system: SF-268 CNS
HT29 colon = system: HT29 colon
SF-539 CNS = system: SF-539 CNS
SF-295 CNS = system: SF-295 CNS
NCI-H522 lung = system: NCI-H522 lung
MDA-MB-435 = system: MDA-MB-435
HOP-92 NSCLC = system: HOP-92 NSCLC
NCI/ADR-RES ovarian = system: NCI/ADR-RES ovarian
K-562 leukemia = system: K-562 leukemia
RXF 393 renal = system: RXF 393 renal
EKVX NSCLC = system: EKVX NSCLC
SK-MEL-28 melanoma = system: SK-MEL-28 melanoma
A549 NSCLC = system: A549 NSCLC

CN(C)c1ccc(C2CC(=O)CC(c3ccc(N(C)C)cc3)C23C(=O)NC(=O)NC3=O)cc1 (stereo unspecified)
TGI (SF-268 CNS): > 25 µM
TGI (HT29 colon): > 25 µM
TGI (SF-539 CNS): > 25 µM
TGI (SF-295 CNS): > 25 µM
TGI (NCI-H522 lung): > 25 µM
TGI (MDA-MB-435): > 25 µM
TGI (HOP-92 NSCLC): 19 µM
TGI (NCI/ADR-RES ovarian): > 25 µM
TGI (K-562 leukemia): > 25 µM
TGI (RXF 393 renal): > 25 µM
TGI (EKVX NSCLC): > 25 µM
TGI (SK-MEL-28 melanoma): > 25 µM

CC(=NNC(=S)Nc1ccccc1C)c1cccc(C(C)=NNC(=S)Nc2ccccc2C)n1
TGI (SF-268 CNS): > 100 µM
TGI (HT29 colon): > 100 µM
TGI (SF-539 CNS): > 100 µM
TGI (SF-295 CNS): > 100 µM
TGI (MDA-MB-435): > 100 µM
TGI (HOP-92 NSCLC): > 100 µM
TGI (A549 NSCLC): > 100 µM
TGI (NCI/ADR-RES ovarian): > 100 µM
TGI (K-562 leukemia): > 100 µM
TGI (RXF 393 renal): > 100 µM
TGI (EKVX NSCLC): > 100 µM
TGI (SK-MEL-28 melanoma): > 100 µM

COC(=O)n1c(=O)nc2c3c(ncn21)Oc1c(c(-c2ccccc2)nn1-c1ccccc1)C3c1ccc(Cl)cc1 (stereo unspecified)
TGI (HT29 colon): 2.9 µM
TGI (SF-539 CNS): 3.14 µM
TGI (SF-295 CNS): 3.04 µM
TGI (NCI-H522 lung): 2.82 µM
TGI (MDA-MB-435): 3.02 µM
TGI (HOP-92 NSCLC): 3.39 µM
TGI (A549 NSCLC): 3.15 µM
TGI (NCI/ADR-RES ovarian): 2.77 µM
TGI (K-562 leukemia): 3.37 µM
TGI (RXF 393 renal): 2.98 µM
TGI (SK-MEL-28 melanoma): 3.18 µM

COc1cc(/C=C2\CCCC3=C2NC(N)=NC3c2cc(OC)c(OC)c(OC)c2)cc(OC)c1OC (stereo unspecified)
GI50 (SF-268 CNS): 2.42 µM
TGI (SF-268 CNS): > 100 µM
GI50 (SF-539 CNS): 3.27 µM
TGI (SF-539 CNS): > 100 µM
GI50 (MDA-MB-435): 0.422 µM
TGI (MDA-MB-435): > 100 µM
GI50 (HOP-92 NSCLC): 1.58 µM
TGI (HOP-92 NSCLC): 5.74 µM
GI50 (NCI/ADR-RES ovarian): 0.29 µM
TGI (NCI/ADR-RES ovarian): > 100 µM
GI50 (K-562 leukemia): 2.15 µM
TGI (K-562 leukemia): > 100 µM
GI50 (EKVX NSCLC): 3.12 µM
TGI (EKVX NSCLC): > 100 µM

Fc1ccc(C(OCCN2CCC3CCC(C2)N3CCCc2ccccc2)c2ccc(F)cc2)cc1 (stereo unspecified)
TGI (SF-268 CNS): 19.8 µM
TGI (HT29 colon): 13.7 µM
TGI (SF-539 CNS): 2.82 µM
TGI (SF-295 CNS): 8.45 µM
TGI (NCI-H522 lung): 12.1 µM
TGI (MDA-MB-435): 7.46 µM
TGI (HOP-92 NSCLC): 18.9 µM
TGI (A549 NSCLC): 19.4 µM
TGI (NCI/ADR-RES ovarian): 13.7 µM
TGI (K-562 leukemia): 5.8 µM
TGI (EKVX NSCLC): 15.2 µM
TGI (SK-MEL-28 melanoma): 6.53 µM

COC(=O)/C=C/c1cc(OC)c2c(c1)C(C(=O)OC)C(c1ccc(OC)c(OC)c1)O2 (stereo unspecified)
GI50 (SF-268 CNS): 70.7 µM and 10.7 µM
TGI (SF-268 CNS): > 100 µM
TGI (HT29 colon): > 100 µM
TGI (SF-295 CNS): > 100 µM
TGI (NCI-H522 lung): > 100 µM
GI50 (MDA-MB-435): 19.8 µM
TGI (MDA-MB-435): 49 µM
TGI (HOP-92 NSCLC): > 100 µM
TGI (A549 NSCLC): > 100 µM
GI50 (NCI/ADR-RES ovarian): 43.3 µM and 4.9 µM
TGI (NCI/ADR-RES ovarian): > 100 µM
TGI (K-562 leukemia): > 100 µM
TGI (RXF 393 renal): > 100 µM
GI50 (EKVX NSCLC): 39.3 µM and 5.12 µM
TGI (EKVX NSCLC): > 100 µM
TGI (SK-MEL-28 melanoma): > 100 µM

CCOC(=O)CCc1c(C(=O)OCC)[nH]c(/C=C2/NC(=O)C(C)=C2CC)c1C
TGI (SF-268 CNS): 29.2 µM
TGI (HT29 colon): 39.9 µM
TGI (SF-539 CNS): 44.4 µM
TGI (SF-295 CNS): 30.6 µM
TGI (NCI-H522 lung): 31.8 µM
TGI (MDA-MB-435): 19.7 µM
TGI (HOP-92 NSCLC): 42.4 µM
TGI (A549 NSCLC): > 100 µM
TGI (NCI/ADR-RES ovarian): 36.9 µM
TGI (K-562 leukemia): 12.9 µM
TGI (RXF 393 renal): 30.3 µM
TGI (SK-MEL-28 melanoma): 30.2 µM

COc1c(O)cc(/C=C/c2cc(O)cc3c2[C@@]2(C(=O)O3)c3c(O)cc(O)cc3OC2c2cccc(O)c2)cc1O (stereo partly specified)
TGI (SF-268 CNS): > 100 µM
TGI (HT29 colon): 81.8 µM
TGI (SF-539 CNS): > 100 µM
TGI (NCI-H522 lung): > 100 µM
TGI (MDA-MB-435): > 100 µM
TGI (HOP-92 NSCLC): > 100 µM
TGI (A549 NSCLC): > 100 µM
TGI (NCI/ADR-RES ovarian): 77.8 µM
TGI (K-562 leukemia): 91.9 µM
TGI (RXF 393 renal): > 100 µM
TGI (SK-MEL-28 melanoma): > 100 µM

COc1cc(C2c3cccc4cccc(c34)C3CCC(=O)N32)cc(O)c1O (stereo unspecified)
TGI (HT29 colon): > 50 µM
TGI (SF-539 CNS): > 50 µM
TGI (SF-295 CNS): > 50 µM
TGI (MDA-MB-435): > 50 µM
TGI (HOP-92 NSCLC): > 50 µM
TGI (A549 NSCLC): > 50 µM
TGI (NCI/ADR-RES ovarian): > 50 µM
TGI (K-562 leukemia): 40.3 µM
TGI (RXF 393 renal): > 50 µM
TGI (EKVX NSCLC): > 50 µM
TGI (SK-MEL-28 melanoma): > 50 µM
